In ChEMBL document CHEMBL3045511, “Effects of Two Isoflavonoids, Osajin and Pomiferin, from Maclura pomifera for Growth and Feeding Disruption in Ostrinia nubilalis” (2001):

How the values were obtained:
Type in all cases: functional
Ostrinia nubilalis [1] = assay: Antifeedant activity against Ostrinia nubilalis (European corn borer) larvae assessed as amount of weight gain by the insect at 0.20% of diet dry weight after 5 days relative to control
Ostrinia nubilalis [2] = assay: Effect on growth of female Ostrinia nubilalis (European corn borer) larvae assessed as adult emergence at 0.10% of diet dry weight after 6 days relative to control
Ostrinia nubilalis [3] = assay: Antifeedant activity against Ostrinia nubilalis (European corn borer) larvae assessed as growth rate at 0.60% of diet dry weight after 5 days relative to control
Ostrinia nubilalis [4] = assay: Antifeedant activity against Ostrinia nubilalis (European corn borer) larvae assessed as feeding rate at 0.80% of diet dry weight after 5 days relative to control
Ostrinia nubilalis [5] = assay: Effect on growth of male Ostrinia nubilalis (European corn borer) larvae assessed as adult emergence at 0.001% of diet dry weight after 6 days relative to control
Ostrinia nubilalis [6] = assay: Antifeedant activity against Ostrinia nubilalis (European corn borer) larvae assessed as feeding rate at 0.60% of diet dry weight after 5 days relative to control
Ostrinia nubilalis [7] = assay: Antifeedant activity against Ostrinia nubilalis (European corn borer) larvae assessed as amount excreted at 0.10% of diet dry weight after 5 days relative to control
Ostrinia nubilalis [8] = assay: Antifeedant activity against Ostrinia nubilalis (European corn borer) larvae assessed as excretion rate at 0.10% of diet dry weight after 5 days relative to control
Ostrinia nubilalis [9] = assay: Effect on growth of male Ostrinia nubilalis (European corn borer) larvae assessed as adult emergence at 1% of diet dry weight after 6 days relative to control
Ostrinia nubilalis [10] = assay: Effect on growth of male Ostrinia nubilalis (European corn borer) larvae assessed as pupal weight at 0.01% of diet dry weight after 6 days relative to control
Ostrinia nubilalis [11] = assay: Effect on growth of female Ostrinia nubilalis (European corn borer) larvae assessed as pupal duration at 0.01% of diet dry weight after 6 days relative to control
Ostrinia nubilalis [12] = assay: Antifeedant activity against Ostrinia nubilalis (European corn borer) larvae assessed as amount excreted at 0.20% of diet dry weight after 5 days relative to control
Ostrinia nubilalis [13] = assay: Antifeedant activity against Ostrinia nubilalis (European corn borer) larvae assessed as amount of food consumed at 0.60% of diet dry weight after 5 days relative to control
Ostrinia nubilalis [14] = assay: Effect on growth of male Ostrinia nubilalis (European corn borer) larvae assessed as pupal duration at 0.001% of diet dry weight after 6 days relative to control
Ostrinia nubilalis [15] = assay: Insecticidal activity against Ostrinia nubilalis (European corn borer) larvae assessed as mortality at 0.10 to 0.80% of diet dry weight after 5 days relative to control
Ostrinia nubilalis [16] = assay: Antifeedant activity against Ostrinia nubilalis (European corn borer) larvae assessed as amount excreted at 0.80% of diet dry weight after 5 days relative to control
Ostrinia nubilalis [17] = assay: Antifeedant activity against Ostrinia nubilalis (European corn borer) larvae assessed as growth rate at 0.80% of diet dry weight after 5 days relative to control
Ostrinia nubilalis [18] = assay: Antifeedant activity against Ostrinia nubilalis (European corn borer) larvae assessed as amount of food consumed at 0.20% of diet dry weight after 5 days relative to control
Ostrinia nubilalis [19] = assay: Effect on growth of male Ostrinia nubilalis (European corn borer) larvae assessed as larval duration at 0.01% of diet dry weight after 6 days relative to control
Ostrinia nubilalis [20] = assay: Effect on growth of female Ostrinia nubilalis (European corn borer) larvae assessed as pupal weight at 0.10% of diet dry weight after 6 days relative to control
Ostrinia nubilalis [21] = assay: Effect on growth of female Ostrinia nubilalis (European corn borer) larvae assessed as adult emergence at 1% of diet dry weight after 6 days relative to control
Ostrinia nubilalis [22] = assay: Effect on growth of male Ostrinia nubilalis (European corn borer) larvae assessed as larval duration at 0.10% of diet dry weight after 6 days relative to control
Ostrinia nubilalis [23] = assay: Effect on growth of female Ostrinia nubilalis (European corn borer) larvae assessed as pupal weight at 0.001% of diet dry weight after 6 days relative to control
Ostrinia nubilalis [24] = assay: Antifeedant activity against Ostrinia nubilalis (European corn borer) larvae assessed as amount of food consumed at 0.10% of diet dry weight after 5 days relative to control
Ostrinia nubilalis [25] = assay: Effect on growth of female Ostrinia nubilalis (European corn borer) larvae assessed as larval duration at 0.01% of diet dry weight after 6 days relative to control
Ostrinia nubilalis [26] = assay: Antifeedant activity against Ostrinia nubilalis (European corn borer) larvae assessed as amount of weight gain by the insect at 0.40% of diet dry weight after 5 days relative to control
Ostrinia nubilalis [27] = assay: Antifeedant activity against Ostrinia nubilalis (European corn borer) larvae assessed as amount of weight gain by the insect at 0.80% of diet dry weight after 5 days relative to control
Ostrinia nubilalis [28] = assay: Antifeedant activity against Ostrinia nubilalis (European corn borer) larvae assessed as amount of food consumed at 0.40% of diet dry weight after 5 days relative to control
Ostrinia nubilalis [29] = assay: Effect on growth of male Ostrinia nubilalis (European corn borer) larvae assessed as pupal duration at 0.10% of diet dry weight after 6 days relative to control
Ostrinia nubilalis [30] = assay: Antifeedant activity against Ostrinia nubilalis (European corn borer) larvae assessed as growth rate at 0.10% of diet dry weight after 5 days relative to control
Ostrinia nubilalis [31] = assay: Effect on growth of female Ostrinia nubilalis (European corn borer) larvae assessed as larval duration at 1% of diet dry weight after 6 days relative to control
Ostrinia nubilalis [32] = assay: Effect on growth of female Ostrinia nubilalis (European corn borer) larvae assessed as adult emergence at 0.01% of diet dry weight after 6 days relative to control
Ostrinia nubilalis [33] = assay: Effect on growth of male Ostrinia nubilalis (European corn borer) larvae assessed as pupal weight at 1% of diet dry weight after 6 days relative to control
Ostrinia nubilalis [34] = assay: Effect on growth of male Ostrinia nubilalis (European corn borer) larvae assessed as pupal weight at 0.10% of diet dry weight after 6 days relative to control
Ostrinia nubilalis [35] = assay: Antifeedant activity against Ostrinia nubilalis (European corn borer) larvae assessed as excretion rate at 0.60% of diet dry weight after 5 days relative to control
Ostrinia nubilalis [36] = assay: Antifeedant activity against Ostrinia nubilalis (European corn borer) larvae assessed as excretion rate at 0.80% of diet dry weight after 5 days relative to control
Ostrinia nubilalis [37] = assay: Effect on growth of male Ostrinia nubilalis (European corn borer) larvae assessed as larval duration at 0.001% of diet dry weight after 6 days relative to control
Ostrinia nubilalis [38] = assay: Antifeedant activity against Ostrinia nubilalis (European corn borer) larvae assessed as amount of weight gain by the insect at 0.60% of diet dry weight after 5 days relative to control
Ostrinia nubilalis [39] = assay: Antifeedant activity against Ostrinia nubilalis (European corn borer) larvae assessed as growth rate at 0.40% of diet dry weight after 5 days relative to control
Ostrinia nubilalis [40] = assay: Effect on growth of male Ostrinia nubilalis (European corn borer) larvae assessed as adult emergence at 0.01% of diet dry weight after 6 days relative to control
Ostrinia nubilalis [41] = assay: Effect on growth of female Ostrinia nubilalis (European corn borer) larvae assessed as pupal weight at 0.01% of diet dry weight after 6 days relative to control
Ostrinia nubilalis [42] = assay: Antifeedant activity against Ostrinia nubilalis (European corn borer) larvae assessed as amount of weight gain by the insect at 0.10% of diet dry weight after 5 days relative to control
Ostrinia nubilalis [43] = assay: Antifeedant activity against Ostrinia nubilalis (European corn borer) larvae assessed as feeding rate at 0.40% of diet dry weight after 5 days relative to control
Ostrinia nubilalis [44] = assay: Antifeedant activity against Ostrinia nubilalis (European corn borer) larvae assessed as feeding rate at 0.10% of diet dry weight after 5 days relative to control
Ostrinia nubilalis [45] = assay: Antifeedant activity against Ostrinia nubilalis (European corn borer) larvae assessed as amount of food consumed at 0.80% of diet dry weight after 5 days relative to control
Ostrinia nubilalis [46] = assay: Antifeedant activity against Ostrinia nubilalis (European corn borer) larvae assessed as amount excreted at 0.40% of diet dry weight after 5 days relative to control
Ostrinia nubilalis [47] = assay: Antifeedant activity against Ostrinia nubilalis (European corn borer) larvae assessed as amount excreted at 0.60% of diet dry weight after 5 days relative to control
Ostrinia nubilalis [48] = assay: Effect on growth of female Ostrinia nubilalis (European corn borer) larvae assessed as larval duration at 0.001% of diet dry weight after 6 days relative to control
Ostrinia nubilalis [49] = assay: Effect on growth of male Ostrinia nubilalis (European corn borer) larvae assessed as larval duration at 1% of diet dry weight after 6 days relative to control
Ostrinia nubilalis [50] = assay: Effect on growth of female Ostrinia nubilalis (European corn borer) larvae assessed as pupal weight at 1% of diet dry weight after 6 days relative to control
Ostrinia nubilalis [51] = assay: Effect on growth of male Ostrinia nubilalis (European corn borer) larvae assessed as pupal duration at 1% of diet dry weight after 6 days relative to control
Ostrinia nubilalis [52] = assay: Effect on growth of male Ostrinia nubilalis (European corn borer) larvae assessed as pupal duration at 0.01% of diet dry weight after 6 days relative to control
Ostrinia nubilalis [53] = assay: Effect on growth of female Ostrinia nubilalis (European corn borer) larvae assessed as larval duration at 0.10% of diet dry weight after 6 days relative to control
Ostrinia nubilalis [54] = assay: Antifeedant activity against Ostrinia nubilalis (European corn borer) larvae assessed as excretion rate at 0.20% of diet dry weight after 5 days relative to control
Ostrinia nubilalis [55] = assay: Antifeedant activity against Ostrinia nubilalis (European corn borer) larvae assessed as feeding rate at 0.20% of diet dry weight after 5 days relative to control
Ostrinia nubilalis [56] = assay: Effect on growth of female Ostrinia nubilalis (European corn borer) larvae assessed as adult emergence at 0.001% of diet dry weight after 6 days relative to control
Ostrinia nubilalis [57] = assay: Effect on growth of male Ostrinia nubilalis (European corn borer) larvae assessed as adult emergence at 0.10% of diet dry weight after 6 days relative to control
Ostrinia nubilalis [58] = assay: Antifeedant activity against Ostrinia nubilalis (European corn borer) larvae assessed as growth rate at 0.20% of diet dry weight after 5 days relative to control
Ostrinia nubilalis [59] = assay: Effect on growth of male Ostrinia nubilalis (European corn borer) larvae assessed as pupal weight at 0.001% of diet dry weight after 6 days relative to control
Ostrinia nubilalis [60] = assay: Effect on growth of female Ostrinia nubilalis (European corn borer) larvae assessed as pupal duration at 0.001% of diet dry weight after 6 days relative to control
Ostrinia nubilalis [61] = assay: Effect on growth of female Ostrinia nubilalis (European corn borer) larvae assessed as pupal duration at 0.10% of diet dry weight after 6 days relative to control
Ostrinia nubilalis [62] = assay: Effect on growth of female Ostrinia nubilalis (European corn borer) larvae assessed as pupal duration at 1% of diet dry weight after 6 days relative to control
Ostrinia nubilalis [63] = assay: Antifeedant activity against Ostrinia nubilalis (European corn borer) larvae assessed as excretion rate at 0.40% of diet dry weight after 5 days relative to control

CC(C)=CCc1c2c(c3occ(-c4ccc(O)c(O)c4)c(=O)c3c1O)C=CC(C)(C)O2 [POMIFERIN]
Activity (Ostrinia nubilalis [1]): 17.7% | Activity (Ostrinia nubilalis [2]): 67% | Activity (Ostrinia nubilalis [3]): 10% | Activity (Ostrinia nubilalis [4]): 20.7% | Activity (Ostrinia nubilalis [5]): 78% | Activity (Ostrinia nubilalis [6]): 23.2% | Activity (Ostrinia nubilalis [7]): 30.4% | Activity (Ostrinia nubilalis [8]): 0% | Activity (Ostrinia nubilalis [9]): 60% | Activity (Ostrinia nubilalis [10]): 72 mg | Time (Ostrinia nubilalis [11]): 7 days | Activity (Ostrinia nubilalis [12]): 8.2% | Activity (Ostrinia nubilalis [13]): 38.5% | Time (Ostrinia nubilalis [14]): 7 days | mortality (Ostrinia nubilalis [15]): <=11% | Activity (Ostrinia nubilalis [16]): 23% | Activity (Ostrinia nubilalis [17]): 12% | Activity (Ostrinia nubilalis [18]): 36.9% | Time (Ostrinia nubilalis [19]): 10.9 days | Activity (Ostrinia nubilalis [20]): 100 mg | Activity (Ostrinia nubilalis [21]): 67% | Time (Ostrinia nubilalis [22]): 11.1 days | Activity (Ostrinia nubilalis [23]): 85 mg | Activity (Ostrinia nubilalis [24]): 33.2% | Time (Ostrinia nubilalis [25]): 11.7 days | Activity (Ostrinia nubilalis [26]): 18.2% | Activity (Ostrinia nubilalis [27]): 36.5% | Activity (Ostrinia nubilalis [28]): 34.2% | Time (Ostrinia nubilalis [29]): 7.5 days | Activity (Ostrinia nubilalis [30]): 13.3% | Time (Ostrinia nubilalis [31]): 12.9 days | Activity (Ostrinia nubilalis [32]): 54% | Activity (Ostrinia nubilalis [33]): 72 mg | Activity (Ostrinia nubilalis [34]): 74 mg | Activity (Ostrinia nubilalis [35]): -12% | Activity (Ostrinia nubilalis [36]): -10% | Time (Ostrinia nubilalis [37]): 10.7 days | Activity (Ostrinia nubilalis [38]): 31.5% | Activity (Ostrinia nubilalis [39]): 5.3% | Activity (Ostrinia nubilalis [40]): 67% | Activity (Ostrinia nubilalis [41]): 96 mg | Activity (Ostrinia nubilalis [42]): 38.1% | Activity (Ostrinia nubilalis [43]): 29% | Activity (Ostrinia nubilalis [44]): -1% | Activity (Ostrinia nubilalis [45]): 40.1% | Activity (Ostrinia nubilalis [46]): 5.4% | Activity (Ostrinia nubilalis [47]): 16.1% | Time (Ostrinia nubilalis [48]): 11.7 days | Time (Ostrinia nubilalis [49]): 11.2 days | Activity (Ostrinia nubilalis [50]): 109 mg | Time (Ostrinia nubilalis [51]): 6.7 days | Time (Ostrinia nubilalis [52]): 7.2 days | Time (Ostrinia nubilalis [53]): 12.1 days | Activity (Ostrinia nubilalis [54]): -7% | Activity (Ostrinia nubilalis [55]): 34.6% | Activity (Ostrinia nubilalis [56]): 50% | Activity (Ostrinia nubilalis [57]): 25% | Activity (Ostrinia nubilalis [58]): 4.7% | Activity (Ostrinia nubilalis [59]): 76 mg | Time (Ostrinia nubilalis [60]): 6.7 days | Time (Ostrinia nubilalis [61]): 6.3 days | Time (Ostrinia nubilalis [62]): 6.4 days | Activity (Ostrinia nubilalis [63]): -12%
